# Columns and labels:
# [1] = test system: conventional diabetic rats; test: Gingival collagenolytic activity, alveolar bone loss, skin collagen and crevicular microflora in conventional streptozotocin-diabetic rats; assay type: in vivo, rat; conditions: 20 mg per day by gavage
# Procedure: Five month old (mean weight, 445g) male Sprague Dawley rats were made diabetic by I.V. injection of streptozotocin (70 mg/kg body weight), after a 12 hour fasting period, (as described by Golub, et al., Biochim. Biophys. Acta., 534, 73-81 (1978) and Golub, et al., Infect. Immun., 37, 1013-1020 (1982). Age matched uninjected rats served as controls. Some of the diabetic rats received the tetracycline, minocycline (20 mg. Minocin® per day; Lederle Laboratories, Pearl River, N.Y.), by gavage on a daily basis beginning 3 days after diabetes is induced. After a 25 day experimental period, blood samples were taken for glucose analysis, and subgingival plaque samples were taken for assessment of the microflora in the region (McNamara, et. al., Archs. Oral. Biol., 27, 217-223 (1982)). The animals were then sacrificed, gingival samples were taken for tissue culture and the jaw bones dissected.
# Alveolar bone loss was assessed in the right and left mandibles of both the conventional and germfree rats (control and diabetic) using a modification of a previously described technique (Stralfors, et.al, Archs. Oral. Biol., 12, 1213-1216 (1967); Heijl, et. al., J. Periodontal Res., 15, 405-419 (1980)). The mandibles were defleshed (autoclaving followed by soaking in 2N NaOH for 2-3 h), dried, and the distance (expressed as units; 1 unit=0.05 mm) between the cementoenamel junction (CEJ) and the crest of the alveolar bone is measured in the long axis of the root surface at 10 specified sites on lingual surfaces of the 3 molar teeth (see Crawford, et.al., J. Periodontal Res., 13, 316-325 (1978)) using an eye-piece micrometer in a dissecting microscope (20× magnification).
# The techniques used were those described by Schneir and Golub, (Streptozotocin: Fundamentals and Therapy (Ed. M. K. Agarwal, Elsevier/North-Holland Biomed Press, Chapter 12, pp 161-182, (1981)). […]
# [2] = test system: gingival collagenolytic enzyme activity of diabetic rats; test: Collagenolytic enzyme activity in extracts of gingiva from diabetic rats given minocycline; assay type: in vivo, rat; conditions: for Gingival Collagenolytic Activity (% C^14-Collagen Degraded): diabetes + oral daily drug
# Procedure: Rats were made diabetic chemically with the agent streptozotocin. Some of the diabetic rats (half were administered minocycline orally on a daily basis) were killed 15 days, or 28 days, or 56 days after inducing diabetes and the gingiva were dissected, the tissues were extracted, and the extracts partially purified by ammonium sulfate precipitation. The partially purified enzyme preparation from the gingiva of a group of non-diabetic (control) rats, and the diabetic rats, was incubated at 37° C. in vitro with radiolabeled collagen fibrils to assess collagenolytic ennzyme activity.
# [3] = test system: GCF collagenase and gingival disease in diabetic twins; test: Human gingival crevicular fluid (GCF) study, diabetic twin brothers; assay type: in vivo; conditions: 7 days of treatment
# Procedure: In a separate study involving humans, gingival crevicular fluid (GCF) samples were collected on filter paper strips inserted into 8 interproximal pockets of selected teeth in the maxillary arch of two twin brothers with juvenile-onset (insulin-dependent) diabetes mellitus. Fluid volume was immediately determined on a modified Periotron (Model 6000, Harco Electronics Ltd., Winnipeg, Canada); then incubated with 10 μl (^3 H-methyl) collagen (20,675 DPM) and 70 μl buffer (50 mM Tris-HCl, pH 7.8, containing 0.2 M sodium chloride and 5 mM calcium chloride). The GCF samples (or reagent blanks or trypsin controls) were incubated at 27° C. for 18 hours with gentle shaking. The reaction was stopped and undigested collagen precipitated by adding 10 μl 0.1 M phenanthroline in dioxane/water (1:1, v/v), 10 μl of nonradioactive methylated carrier collagen (2 mg/ml) in 50 mM Tris-HCl buffer containing 1M NaCl (pH 7.0), and 100 μl dioxane. After mixing, the radiolabeled collagen degradation products were collected by filtration and counted in a liquid scintillation spectrometer (Golub, et. al., 1976, J. Dent. Res., 55, 1049). Using this technique, the reaction blank (no enzyme or GCF added) released about 10% of the total substrate counts; 2-20 ng bacterial collagenase produced a linear increase in the release of radioactive counts from the ^3 H-collagen substrate (the 20 ng level of enzyme degraded 60% of the collagen substrate); and 50 ng trypsin released less than 1% of the counts above blank values. GCF collagenase activity was expressed as units of equivalent activity of vertebrate collagenase (obtained from New England Nuclear, Cat. No. NEK-016); 1 unit was operationally defined as the amount of enzyme that degrades 1 μg of collagen per hour at 27° C.
# Four additional GCF samples were collected from other maxillary pockets of the same diabetic twin brothers on filter paper strips, their volume determined (see above), and collagenolytic activity assessed using the same procedure described above but with a different substrate (10 μl of (^3 H-propionate) collagen, NET-660, New England Nuclear Corp., Boston, Mass., 302,000 DPM).
# Half of the 12 GCF samples per subject were activated by pretreatment with 1.04 uM trypsin followed by the addition of a 5-fold molar excess of soybean trypsin inhibitor. Samples were selected to be treated or not treated with trypsin by matching them for Gingival Index (Loe and Silness, Acta. Odont. Scand., 21, 533-551 (1967)), GCF flow, and for pocket depth; the clincal parameters (GI, PD) were measured immediately after GCF collection. All measurements were carried out immediately before antibiotic coverage and after 7 days of treatment with either pencillin G (lg. per day; patient three) or the tetracycline minocycline (200 mg/day; patient one).
# [4] = penicillin G 1 g per day (P. D.) or minocycline 200 mg/day (K. D.)
smiles,measurement,setting,value
"CN(C)c1ccc(O)c2c1C[C@H]1C[C@H]3[C@H](N(C)C)C(O)=C(C(N)=O)C(=O)[C@@]3(O)C(O)=C1C2=O [minocycline, Minocycline]",Gram-negative microflora in the gingival crevices,[1],eliminated detectable signs
same,alveolar bone loss in the interproximal region,[1],completely reversed
same,reduction of gingival collagenolytic activity (tissue culture),[1]; 25 day experimental period,62%
same,% Inhibition of Collagenolytic Activity by Minocycline,[2]; 15 days,42.5%
same,% Inhibition of Collagenolytic Activity by Minocycline,[2]; 28 days,72.7%
same,% Inhibition of Collagenolytic Activity by Minocycline,[2]; 56 days,77.2%
same,Gingival Collagenolytic Activity (% C^14-Collagen Degraded),"[2]; 15 days, untreated diabetic 50.4, control 9.1",29.0%
same,Gingival Collagenolytic Activity (% C^14-Collagen Degraded),"[2]; 28 days, untreated diabetic 63.0, control 9.1",17.2%
same,Gingival Collagenolytic Activity (% C^14-Collagen Degraded),"[2]; 56 days, untreated diabetic 47.8, control 9.1",10.9%
same,GCF flow,[3]; [4],significant reductions
same,Gram-positive and Gram-negative organisms in the pockets,[3]; [4],marked reduction in Gram-negative
same,active GCF collagenase,[3]; [4],significant reductions
same,pocket depth,[3]; [4],no decrease
same,total GCF collagenase (after trypsin pretreatment),[3]; [4],significant reductions
same,Gingival Index (G. I.),[3]; penicillin G 1 g per day (patient three) or minocycline 200 mg/day (patient one),significant reductions
